{"source": "patent US20260335339A1", "about": "“COMPOSITIONS FOR DERMAL/TRANSDERMAL DELIVERY AND COSMETIC USE” (YISSUM RESEARCH DEVELOPMENT COMPANY OF THE HEBREW …, priority 2022, published 2026)", "origin": "cited, not measured here", "settings": "lipophilic fluorescent molecule"}
{"smiles": "O=C1OC2(c3ccc(O)cc3Oc3cc(O)ccc32)c2ccc(N=C=S)cc21", "note": "[FITC, fluorescein isothiocyanate]", "values": [{"measurement": "log p", "result": 4.3}]}
